Here are results for 20 molecules from PubChem BioAssay AID200 (DTP/NCI, 2004).

The test has as its system B6C3F1 mice, B16 melanoma ip, median survival T/C. The test can be described thus: NCI In Vivo Anticancer Drug Screen. Data for tumor model B16 Melanoma (intraperitoneal) in B6C3F1 mice. Particulars: endpoint: median survival time, higher = longer survival. In outline: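 Transplantable tumor in mice; treated vs vehicle control groups; survival or tumor size measured; value = T/C ratio.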

[1] abbreviates: dose: 1.56 mg/kg/injection, schedule: Q01DX009 (ip), vehicle: Klucel (hydroxypropylcellulose) (HPC).
Setting [2] is: dose: 3.12 mg/kg/injection, schedule: Q01DX009 (ip), vehicle: Klucel (hydroxypropylcellulose) (HPC).
Setting [3] is: dose: 6.25 mg/kg/injection, schedule: Q01DX009 (ip), vehicle: Klucel (hydroxypropylcellulose) (HPC).
The mark [4] stands for this setting: dose: 12.5 mg/kg/injection, schedule: Q01DX009 (ip), vehicle: Klucel (hydroxypropylcellulose) (HPC).
The mark [5] stands for this setting: dose: 12.5 mg/kg/injection, schedule: Q01DX009 (ip), vehicle: saline with Tween-80.
Where [6] appears, read: dose: 25.0 mg/kg/injection, schedule: Q01DX009 (ip), vehicle: saline with Tween-80.
[7] abbreviates: dose: 50.0 mg/kg/injection, schedule: Q01DX009 (ip), vehicle: saline with Tween-80.
[8] abbreviates: dose: 100.0 mg/kg/injection, schedule: Q01DX009 (ip), vehicle: saline with Tween-80.
[9] abbreviates: dose: 200.0 mg/kg/injection, schedule: Q01DX009 (ip), vehicle: saline with Tween-80.

Several values for one entry are separate records, joined by “and”; a condition that tells them apart may be missing. Identical values can stand only once. Toxic doses and inconclusive results are not listed.

Regarding `Cn1c(N)c(C(=O)/C=C/c2ccccc2)c(=O)n(C)c1=O`, the T/C under setting [1] was 101 % of control; the T/C under setting [2] is 107 % of control; the T/C under setting [3] is 106 % of control; the T/C under setting [4] is 104 % of control; the T/C (dose: 25.0 mg/kg/injection, schedule: Q01DX009 (ip), vehicle: Klucel (hydroxypropylcellulose) (HPC)) is 105 % of control; the T/C (dose: 50.0 mg/kg/injection, schedule: Q01DX009 (ip), vehicle: Klucel (hydroxypropylcellulose) (HPC)) was 116 % of control.

Regarding `CC(=O)OC1(C)CC(C)C(=O)C(C(O)CC2CC(=O)NC(=O)C2)C1` (configuration not stated), the T/C (dose: 15.6 micrograms/kg/injection, schedule: Q01DX009 (ip), vehicle: saline) was 111 % of control; the T/C (dose: 31.3 micrograms/kg/injection, schedule: Q01DX009 (ip), vehicle: saline) was 107 % of control; the T/C (dose: 62.5 micrograms/kg/injection, schedule: Q01DX009 (ip), vehicle: saline) is 104 % of control; the T/C (dose: 125.0 micrograms/kg/injection, schedule: Q01DX009 (ip), vehicle: saline) was 108 % of control; the T/C (dose: 250.0 micrograms/kg/injection, schedule: Q01DX009 (ip), vehicle: saline) was 117 % of control.

In the case of `CCNC(=O)OCc1c(COC(=O)NCC)c(-c2ccc(Cl)c(Cl)c2)n2c1CCC2`, the T/C by setting is: (dose: 0.78 mg/kg/injection, schedule: Q01DX009 (ip), vehicle: saline with Tween-80) 95 % of control; (dose: 3.12 mg/kg/injection, schedule: Q01DX009 (ip), vehicle: saline with Tween-80) 119 % of control; under setting [5], 162 % of control; under setting [6], 103 % of control.

As for `COc1cc2c(oc(=O)c3cc(C)cc(OC)c32)c2c(C3OC(C)C(O)C(C)(O)C3O)ccc(O)c12` (configuration not stated), the T/C reads like this: (dose: 1.56 mg/kg/injection, schedule: Q01DX009 (ip), vehicle: DMSO) 94 % of control and 103 % of control; (dose: 3.12 mg/kg/injection, schedule: Q01DX009 (ip), vehicle: DMSO) 109 % of control and 107 % of control; (dose: 6.0 mg/kg/injection, schedule: Q01DX009 (ip), vehicle: DMSO) 88 % of control; (dose: 6.25 mg/kg/injection, schedule: Q01DX009 (ip), vehicle: DMSO) 119 % of control and 96 % of control and 104 % of control; (dose: 12.0 mg/kg/injection, schedule: Q01DX009 (ip), vehicle: DMSO) 96 % of control; (dose: 12.5 mg/kg/injection, schedule: Q01DX009 (ip), vehicle: DMSO) 121 % of control.

With `Nc1nc2ccc(NCc3ccc(C(=O)NC(CCC(=O)O)C(=O)O)cc3)cc2c(=O)[nH]1` (configuration not stated), the T/C was 88 % of control (dose: 6.25 mg/kg/injection, schedule: Q01DX009 (ip), vehicle: saline with Tween-80); 91 % of control under setting [5]; 97 % of control under setting [6]; 91 % of control under setting [7]; 93 % of control under setting [8].

`c1cnc2ncncc2n1`: the T/C (dose: 12.5 mg/kg/injection, schedule: Q01DX009 (ip), vehicle: saline) was 110 % of control; the T/C (dose: 25.0 mg/kg/injection, schedule: Q01DX009 (ip), vehicle: saline) was 107 % of control; the T/C (dose: 50.0 mg/kg/injection, schedule: Q01DX009 (ip), vehicle: saline) was 97 % of control; the T/C (dose: 100.0 mg/kg/injection, schedule: Q01DX009 (ip), vehicle: saline) is 91 % of control; the T/C (dose: 200.0 mg/kg/injection, schedule: Q01DX009 (ip), vehicle: saline) was 99 % of control.

Regarding `COc1c(C=O)c2c(c(OC)c1OC)-c1ccc(OC)c(=O)cc1[C@@H](NC(C)=O)CC2`, the T/C is, setting by setting: (dose: 0.78 mg/kg/injection, schedule: Q01DX009 (ip), vehicle: Klucel (hydroxypropylcellulose) (HPC)) 116 % of control; under setting [1], 111 % of control and 121 % of control and 124 % of control; under setting [2], 123 % of control and 107 % of control; under setting [3], 116 % of control; under setting [4], 120 % of control; (dose: 12.6 mg/kg/injection, schedule: Q01DX009 (ip), vehicle: Klucel (hydroxypropylcellulose) (HPC)) 114 % of control.

Consider `COC(CCC(C)C1OC23CC(OC(=O)CC(C(C)O)OC(=O)CC(O)(O2)C(C)CC3(C)C)C1C)c1cccc(O)c1` (configuration not stated), for which the T/C is 96 % of control (dose: 12.5 micrograms/kg/injection, schedule: Q01DX009 (ip), vehicle: saline + Tween-80 + alcohol); 97 % of control (dose: 25.0 micrograms/kg/injection, schedule: Q01DX009 (ip), vehicle: saline + Tween-80 + alcohol); 104 % of control (dose: 50.0 micrograms/kg/injection, schedule: Q01DX009 (ip), vehicle: saline + Tween-80 + alcohol); 102 % of control (dose: 100.0 micrograms/kg/injection, schedule: Q01DX009 (ip), vehicle: saline + Tween-80 + alcohol).

Consider `CCC(/C=C/C1OC(=O)C=CC1C)=C\C(C)C/C=C/C(C)=C/C(C)C(=O)C(C)C(O)C(C)C/C(C)=C/C(=O)O` (configuration not stated), for which the T/C is 105 % of control (dose: 6.25 micrograms/kg/injection, schedule: Q01DX009 (sc), vehicle: other); 159 % of control (dose: 12.5 micrograms/kg/injection, schedule: Q01DX009 (ip), vehicle: other); 156 % of control and 198 % of control (dose: 12.5 micrograms/kg/injection, schedule: Q01DX009 (ip), vehicle: saline + alcohol); 102 % of control (dose: 12.5 micrograms/kg/injection, schedule: Q01DX009 (sc), vehicle: other); 165 % of control (dose: 25.0 micrograms/kg/injection, schedule: Q01DX009 (ip), vehicle: saline + alcohol); 115 % of control (dose: 25.0 micrograms/kg/injection, schedule: Q01DX009 (sc), vehicle: other).

Take `Nc1ccc2ccc(N)cc2c1`: the T/C under setting [6] is 109 % of control, the T/C under setting [7] is 109 % of control, the T/C under setting [8] is 116 % of control and the T/C under setting [9] was 105 % of control.

For the molecule `Nc1ncnc2c1cnn2Cc1ccc(Cl)cc1`, the T/C was 107 % of control under setting [7] and 100 % of control under setting [8].

Turning to `COc1cccc2c1C(=O)c1c(O)c3c(c(O)c1C2=O)C[C@@](O)(C(=O)CO)C[C@@H]3OC1CC(NC(=O)C(N)CC(C)C)C(O)C(C)O1` (some centres not stated), the T/C by setting is: (dose: 6.25 mg/kg/injection, schedule: Q01DX001 (ip), vehicle: saline) 192 % of control; (dose: 12.5 mg/kg/injection, schedule: Q01DX001 (ip), vehicle: saline) 192 % of control; (dose: 25.0 mg/kg/injection, schedule: Q01DX001 (ip), vehicle: saline) 269 % of control; (dose: 50.0 mg/kg/injection, schedule: Q01DX001 (ip), vehicle: saline) 183 % of control.

Turning to `O=C1c2ccccc2C(=O)N1CC#CCN1C(=O)c2ccccc2C1=O`, the T/C was 108 % of control (dose: 75.0 mg/kg/injection, schedule: Q01DX009 (ip), vehicle: saline with Tween-80); 93 % of control (dose: 150.0 mg/kg/injection, schedule: Q01DX009 (ip), vehicle: saline with Tween-80); 90 % of control (dose: 300.0 mg/kg/injection, schedule: Q01DX009 (ip), vehicle: saline with Tween-80).

`c1ccc(OCC2CO2)c(OCC2CO2)c1` (configuration not stated): the T/C was 108 % of control under setting [5]; 109 % of control and 114 % of control and 118 % of control under setting [6]; 150 % of control and 171 % of control under setting [8]; 219 % of control under setting [9].

Take `CN=S(=O)(OCCCCCOS(=O)(=NC)c1ccc(C)cc1)c1ccc(C)cc1` (configuration not stated): the T/C under setting [5] was 94 % of control, the T/C under setting [6] was 104 % of control, the T/C under setting [7] was 113 % of control and the T/C under setting [8] is 123 % of control.

On to `NC(=O)SCC(N)C(=O)O` (configuration not stated), for which the T/C by setting is: under setting [7], 92 % of control; under setting [8], 87 % of control; under setting [9], 96 % of control.

As to `CNC(=O)OCc1c(COC(=O)NC)c(-c2ccc(Cl)c(Cl)c2)n2c1Cc1ccccc1C2`, the T/C (dose: 25.0 mg/kg/injection, schedule: Q01DX009 (ip), vehicle: distilled water + Tween-80) was 165 % of control; the T/C (dose: 50.0 mg/kg/injection, schedule: Q01DX009 (ip), vehicle: distilled water + Tween-80) is 194 % of control and 203 % of control; the T/C (dose: 100.0 mg/kg/injection, schedule: Q01DX009 (ip), vehicle: distilled water + Tween-80) was 92 % of control.

`CCOC(=O)NC1CCc2cc(OC)c(OC)c(OC)c2-c2ccc(OC)c(=O)cc21` (configuration not stated): the T/C is 152 % of control (dose: 1.5 mg/kg/injection, schedule: Q01DX009 (ip), vehicle: Klucel (hydroxypropylcellulose) (HPC)); 150 % of control and 152 % of control (dose: 2.5 mg/kg/injection, schedule: Q01DX009 (ip), vehicle: Klucel (hydroxypropylcellulose) (HPC)); 154 % of control (dose: 4.16 mg/kg/injection, schedule: Q01DX009 (ip), vehicle: Klucel (hydroxypropylcellulose) (HPC)).

As for `O=C(CCl)NC(Cc1ccccc1)C(=O)O` (configuration not stated), the T/C is, setting by setting: under setting [7], 88 % of control; under setting [8], 90 % of control; under setting [9], 90 % of control.

Regarding `Nc1nc(SCc2ccccc2Cl)c2ncn(C3OC(CO)C(O)C3O)c2n1` (configuration not stated), the T/C under setting [5] is 106 % of control and the T/C under setting [6] is 90 % of control.
